Consider 8 compounds from patent US10648917B2, “Luminescent compositions and applications thereof” (THE PENN STATE RESEARCH FOUNDATION, priority 2015, dated 2020).

Common to all, as to type: physicochemical
Series [1] in a line: Photostability under continuous excitation for 3 hours. The conditions noted are these: 3 hours continuous excitation. As to the method:
(§1) Fluorescence spectra were recorded by a Horiba FluoroMax-4 spectrofluorometer. All samples were measured at a concentration corresponding to an optical density of 0.1 in water and a slit size of 1 nm by 1 nm unless specified. Quantum yields were also determined on same spectrofluorometer by using a Quantum-φ integration sphere at samples' maximum excitation wavelength and at an increment of 0.3 nm. Photostability studies were done by continuously exciting samples at their maximum excitation wavelength and monitoring at the maximum emission wavelength.
(§2) Fluorescence spectra were recorded on a Horiba FluoroMax-4 spectrofluorometer (Horiba Scientific, Edison N.J.). All polymer and samples were characterized at a concentration of 2 wt % in 1,4-dioxane and a slit size of 1 nm by 1 nm unless otherwise specified. The fluorescence properties of small molecule dyes were also measure in 2 wt % DI water solutions at same conditions as polymer solutions. BPLPs were also degraded in 1M K2CO3 solution at 37° C. for 24 hours and then neutralized with 1N HCl solution to pH7. The resulting degradation solutions were subject to further PL characterizations. Quantum yields were also determined on the same spectrofluorometer by using a Quantum-φ integration sphere (Horiba Scientific, Edison N.J.) at the same concentration and slit size with the blank solvent as the reference. Photostability of small molecules and polymers were determined by monitoring the emission intensity decay at their max. Excitation and emission wavelengths over 3 hours of continuous lumination in the spectrofluorometer.
Photostability of CFDs was characterized thereafter, since traditional organic dyes suffer from photobleaching. Various CFDs were tested under their maximum excitation and emission wavelengths for 3 hours, and the photoluminescence was normalized to the initial intensity.

A short description of series [2]: pH dependence of fluorescence / pH sensing. As to the method:
(§3) Absorbance Spectra were recorded on Tecan Infinite M200 Pro UV-vis spectroscopy, and fluorescence spectra were recorded on Horiba FluoroMax-4 fluorospectroscopy at concentrations below 0.1 O.D. unless otherwise indicated. Quantum Yields were measured on the Quantum φ Integrating Sphere accessory to the FluoroMax-4, while lifetime measurements were determined through the Time-Correlation Single Photon Counting (TCSPC) accessory to the FluroMax-4. TCSPC was utilized in conjunction with NanoLED pulsed diode light source with peak excitation wavelength at 352 nm and at 10,000 counts peak preset. Emission was collected at the fluorescence λmax, unless otherwise indicated. For all pH-dependence experiments, sample pH was adjusted with sulfuric acid or sodium hydroxide. For all chloride-dependent quenching experiments, magnesium chloride hexahydrate (Sigma Aldrich) was used.
pH Dependence of CA-Cys Fluorescence. Of all solvent and environmental factors that affect fluorescence, CA-Cys appeared to display the greatest sensitivity to changes in pH. […] From a detailed analysis of FIG. 13, four correlations were observed. Fluorescence properties of CA-Cys were invariable from high basicity to a pH of 4.84, from which the excitation λmax began to red-shift from 350 nm, emission λmax began to red-shift from 418 nm, maximum fluorescence intensity began to decrease, and quantum yield began to decrease. As acidity was increased, all four trends continued until pH 2.44, from which the excitation λmax plateaued at 365 nm, emission plateaued at 445 nm, and fluorescence intensity and quantum yield both experienced a short local plateau. Similarly, Stokes shift increased from 67 nm to 80 nm in high acidity. Lastly, absorbance λmax shifted similarly to that of the maximum excitation, while absorbance intensities remained relatively constant. […] All of these patterns were reminiscent of a pH-dependent equilibrium, thus the predominant mechanism of intensity quenching and bathochromic shifts was hypothesized to be attributed to changes in protolytic equilibria. The noticeably linear quenching of intensities past pH 1.63 is discussed with respect to lifetime analysis herein below.
There is a predictable, linear increase in intensity from pH 3 to 4.5. Furthermore, emission collected at a fixed 445 nm is shown in FIG. 15 to be an isobestic point where intensities are independent of pH (up to pH 1), which should greatly improve the functionality of CA-Cys as a pH sensor. In other words, utilizing 445 nm as a dual-wavelength reference point allows for background subtraction and normalization with respect to absorbance or concentration. […] Furthermore, I418 nm/I445 nm increases linearly in the region of pH 3 to 4.5 for accurate determination of pH within this region, plotted and fitted with an R^2 value of 0.982. To sum up, I418 nm/I445 nm values near 1.6 indicate pH above 4.5, values below 0.7 indicate highly acidic environments below pH 3, while any intermediate I418 nm/I445 nm values can determine the exact pH with good accuracy. It is important to note that CA-Cys fluorescence is in accordance with Kasha's rule, i.e. fluorescence occurs from the lowest excited state, S1→S0, thus the emission λmax is independent of the excitation wavelength, and a fluorescence excitation scan at a fixed emission of 418 nm or 445 nm would provide the maximum fluorescence intensity for that emission wavelength. Also of importance is the reliable range of the isobestic point, which is broken at high acidities (noticeably below pH 1) due to dynamic quenching effects.

Series [3] in a line: Fluorescence spectra, absorbance and quantum yield (spectrofluorometer, integration sphere). The conditions noted are these: for Shifting (emission shifting with excitation wavelength): CFD dyes; for Φ (quantum yield) / λem (maximum emission wavelength) / λex (maximum excitation wavelength) / ϵ (extinction coefficiency): Table III; for Max. Em. Wavelength / Max. Ex. Wavelength / Quantum Yield: representative CFDs, Table I. As to the method:
Fluorescence spectra were recorded by a Horiba FluoroMax-4 spectrofluorometer. All polymer and small molecule samples were measured at a concentration of 2% w/w in 1,4-dioxane or DI water and a slit size of 1 nm by 1 nm unless otherwise specified. Quantum yields were also determined on the same spectrofluorometer by using a Quantum-φ integration sphere at the same concentration and slit size with the blank solvent as the reference. ^1H-NMR, ^13C-NMR were performed on a JNM ECS 300 spectrometer using DMSO-d6 or D2O as solvents. Attenuated total reflection Fourier transform infrared (ATR-FTIR) spectra were collected with a Bruker V70 spectrometer using BPLP films. A Shimadzu HPLC-MS system with a Phenomenex Kinetex 2.6u XB-C18 100 mm×2.9 mm column, a SPD M20A PDA detector and a RF-20AXS fluorescence detector (Ex. 360 nm and Em. 430 nm) was used to characterize the structures of fluorophores as well. The mobile phase was a gradient of DI water and acetonitrile with 0-6 min 2% acetonitrile, 6-12 min 2%-30% acetonitrile, and 12-15 min 2% acetonitrile. The flow rate was 0.15 ml/min. Electrospray ionization mass spectroscopy (ESI-MS) was performed with a positive voltage of 4.5 kV and negative mode voltage −4.0 kV and a CDL temperature of 200° C. The analysis of the degradation products of BPLPs were conducted by immersing BPLPs in 1M K2CO3 solution at 37° C. for 24 hours. After degradation, the solutions were neutralized by 1N HCl solution to pH 7 and characterized by HPLC-MS as described above.
as §1, §2, §3

A short description of series [4]: Time-resolved fluorescence lifetime (TCSPC). To be noted: one-exponential decay, pulsed excitation at 352 nm, maximum emission wavelength. As to the method:
Fluorescence lifetimes were determined by using the Time-Correlation Single Photon Counting (TCSPC) accessory to the FluroMax-4 (Horiba, NJ). NanoLED pulse light sources at wavelengths of 352 nm and 390 nm were used for excitation. For each decay curve, 10,000 photons were collected. Fluorescence lifetime decays were fitted with an exponential series according to equation 1 below:
[formula] where F(t) is the lifetime decay function with respect to time t, Ti is the lifetime value of the emitting species, A is the background offset, and Bi is the pre-exponential function of the emitting species. The method of least squares was used to quantify χ^2 based on the decay data and the fitting function, where χ^2 values smaller than 1.2 indicates a good fit; and values above 1.2 indicate need for multiple exponential fitting in equation 1. If the lifetime decay is dominated by one emitting species, the equation can be simplified to include only the first two terms. One exponential fitting is good for TPA based fluorophores. However, for DPR based fluorophores, only three exponential fitting gives a χ^2 smaller than 1.2. E. Computational Modeling
as §3
Fluorescence lifetime decays were fitted with an exponential series according to equation 5 below:
[formula] Where F(t) is the lifetime decay function with respect to time t, Ti is the lifetime value of the emitting species, A is the background offset, and Bi is the pre-exponential function of the emitting species. If the lifetime decay is dominated by one emitting species, the equation can be simplified to include only the first two terms. Bi measures the relative amplitude of the specified fluorophore, where the percent contribution of the fluorophore to the lifetime decay, f, is derived from equation 6:
[formula] The method of least squares was used to quantify χ^2 based on the decay data and the fitting function, where χ^2 values under 1.2 indicates a good fit, and values above 1.2 indicate need for additional terms in equation 5. Typically, an additional exponential term was necessary to improve the χ^2 value and account for the presence of a negligible 6 ns species, deemed to stem from by-products of CFD synthesis, impurities, or CFD dimers. Since the contribution from this species was minor, often less than 5%, it was not included in lifetime analysis.

`CCCN1C(=O)C=C(C(=O)O)CC1=O` [CA-Propylamine]: in series [1], the “photobleaching relative to Fluorescein and Rhodamine B” value is “less stable”. Besides, the pH sensitivity entry in series [2] is listed as “PH insensitive”. Further, in series [3], the “Shifting (emission shifting with excitation wavelength)” value is “Yes”, the “Φ (quantum yield)” value amounted to 24.6%, the “λem (maximum emission wavelength)” value is reported as 424 nm and the “λex (maximum excitation wavelength)” value stood at 359 nm. For the same compound, in series [3], the “ϵ (extinction coefficiency)” value came to 6.6 M⁻¹ cm⁻¹, the “Max. Em. Wavelength” value is 422 nm, the “Max. Ex. Wavelength” value turned out to be 359 nm and the “Quantum Yield” value is reported as 22.1%.

As for `O=C(O)CN1C(=O)C=C(C(=O)O)CC1=O` [CA-Gly], in series [3], the “Shifting (emission shifting with excitation wavelength)” value is given as “Yes”, the “Φ (quantum yield)” value turned out to be 39.0%, the “λem (maximum emission wavelength)” value is given as 434 nm and the “λex (maximum excitation wavelength)” value stood at 357 nm. For the same compound, in series [3], the “ϵ (extinction coefficiency)” value was found to be 12 M⁻¹ cm⁻¹, the “Max. Em. Wavelength” value came out at 434 nm, the “Max. Ex. Wavelength” value came out at 357 nm and the “Quantum Yield” value was found to be 39.0%.

`CCCCCCCN1C(=O)C=C(C(=O)O)CC1=O` [CA-Heptylamine]: in series [3], the “Φ (quantum yield)” value was 13.5%, the “λem (maximum emission wavelength)” value was 424 nm, the “λex (maximum excitation wavelength)” value is 356 nm and the “ϵ (extinction coefficiency)” value stood at 4.7 M⁻¹ cm⁻¹.

For the compound `O=C(O)CCC(C(=O)O)N1C(=O)C=C(C(=O)O)CC1=O` (stereo not drawn) [CA-Glutamic Acid], in series [3], the “Φ (quantum yield)” value is listed as 9.1%, the “λem (maximum emission wavelength)” value turned out to be 423 nm, the “λex (maximum excitation wavelength)” value came to 358 nm and the “ϵ (extinction coefficiency)” value was 5.1 M⁻¹ cm⁻¹.

For the compound `CC1(C)Sc2cc(C(=O)O)cc(=O)n2C1C(=O)O` (stereo not drawn) [CA-Penicillamine], in series [3], the “Φ (quantum yield)” value amounted to 80.6%, the “λem (maximum emission wavelength)” value is on record as 432 nm, the “λex (maximum excitation wavelength)” value is 369 nm and the “ϵ (extinction coefficiency)” value stood at 3180 M⁻¹ cm⁻¹.

As for `O=C(O)C1=CC(=O)N(CCO)C(=O)C1` [CA-ethanolamine], in series [3], the “Φ (quantum yield)” value is on record as 42.1%, the “λem (maximum emission wavelength)” value was 419 nm, the “λex (maximum excitation wavelength)” value was found to be 368 nm and the “ϵ (extinction coefficiency)” value stood at 34.6 M⁻¹ cm⁻¹.

In the case of `CCN(CC)c1ccc2c(-c3ccccc3C(=O)O)c3ccc(=[N+](CC)CC)cc-3oc2c1.[Cl-]` [Rhodamine B, reference compound], the “fluorescence lifetime τ” value in series [4] was 1.75 ns.

Regarding `O=C(O)C1CC(=O)N(C(CS)C(=O)O)C(=O)C1` (stereo not drawn) [TCA-Cysteine], in series [3], the “Φ (quantum yield)” value is given as 54.2%, the “λem (maximum emission wavelength)” value is reported as 431 nm, the “λex (maximum excitation wavelength)” value amounted to 366 nm and the “ϵ (extinction coefficiency)” value was 11.6 M⁻¹ cm⁻¹.
